According to PubChem BioAssay (NCI):
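Compound exposure: 48 hours, 5 concentrations, 96-well plates. Abbreviation: GI50, concentration required for 50% inhibition of growth. TGI marks complete inhibition of growth.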

Assays:
Assay in all cases: NCI-60 cell line screen, 48 h
LOX IMVI melanoma = tested on: LOX IMVI melanoma
786-0 renal = tested on: 786-0 renal
HOP-92 NSCLC = tested on: HOP-92 NSCLC
MDA-MB-435 = tested on: MDA-MB-435
UACC-62 melanoma = tested on: UACC-62 melanoma
SF-295 CNS = tested on: SF-295 CNS
HL-60(TB) leukemia = tested on: HL-60(TB) leukemia
U251 CNS = tested on: U251 CNS
HCT-116 colon = tested on: HCT-116 colon
PC-3 prostate = tested on: PC-3 prostate

| SMILES | GI50 (LOX IMVI melanoma) [µM] | TGI (LOX IMVI melanoma) [µM] | GI50 (786-0 renal) [µM] | TGI (786-0 renal) [µM] | GI50 (HOP-92 NSCLC) [µM] | TGI (HOP-92 NSCLC) [µM] | GI50 (MDA-MB-435) [µM] | TGI (MDA-MB-435) [µM] | GI50 (UACC-62 melanoma) [µM] | TGI (UACC-62 melanoma) [µM] | GI50 (SF-295 CNS) [µM] | TGI (SF-295 CNS) [µM] | GI50 (HL-60(TB) leukemia) [µM] | TGI (HL-60(TB) leukemia) [µM] | GI50 (U251 CNS) [µM] | TGI (U251 CNS) [µM] | GI50 (HCT-116 colon) [µM] | TGI (HCT-116 colon) [µM] | GI50 (PC-3 prostate) [µM] | TGI (PC-3 prostate) [µM] |
| --- | --- | --- | --- | --- | --- | --- | --- | --- | --- | --- | --- | --- | --- | --- | --- | --- | --- | --- | --- | --- |
| Cc1cc(Nc2cc(N)ncn2)c(=O)n2c1C(=O)NC21CCCCC1 | > 100 | > 100 | 22.9 | > 100 | 13.3 | > 100 | > 100 | > 100 | > 100 | > 100 | 46.8 | > 100 | > 100 | > 100 | 83.7 | > 100 | > 100 | > 100 | > 100 | > 100 |
| Cc1cccc(Cc2cnc(NC(=O)CCc3ccc(C)o3)s2)c1 | 0.518 | > 100 | 0.724 | > 100 | 7.31 | 98.7 | 0.0302 | 0.12 | 0.16 | > 100 | 0.195 | 12.6 | 0.161 | 0.44 | 0.293 | > 100 | 0.242 | > 100 | 0.336 | > 100 |
